Measurements published in patent US20160130278A1 (TAISHO PHARMACEUTICAL CO., LTD, priority 2013, published 2016).

Target: T1, human type 1 glycine transporter (GlyT1) (Homo sapiens, UniProt P48067)
T1 construct: T98G cells (glioma cells) expressing human type 1 glycine transporter (GlyT1) were used
T1 sequence (P48067 1-706): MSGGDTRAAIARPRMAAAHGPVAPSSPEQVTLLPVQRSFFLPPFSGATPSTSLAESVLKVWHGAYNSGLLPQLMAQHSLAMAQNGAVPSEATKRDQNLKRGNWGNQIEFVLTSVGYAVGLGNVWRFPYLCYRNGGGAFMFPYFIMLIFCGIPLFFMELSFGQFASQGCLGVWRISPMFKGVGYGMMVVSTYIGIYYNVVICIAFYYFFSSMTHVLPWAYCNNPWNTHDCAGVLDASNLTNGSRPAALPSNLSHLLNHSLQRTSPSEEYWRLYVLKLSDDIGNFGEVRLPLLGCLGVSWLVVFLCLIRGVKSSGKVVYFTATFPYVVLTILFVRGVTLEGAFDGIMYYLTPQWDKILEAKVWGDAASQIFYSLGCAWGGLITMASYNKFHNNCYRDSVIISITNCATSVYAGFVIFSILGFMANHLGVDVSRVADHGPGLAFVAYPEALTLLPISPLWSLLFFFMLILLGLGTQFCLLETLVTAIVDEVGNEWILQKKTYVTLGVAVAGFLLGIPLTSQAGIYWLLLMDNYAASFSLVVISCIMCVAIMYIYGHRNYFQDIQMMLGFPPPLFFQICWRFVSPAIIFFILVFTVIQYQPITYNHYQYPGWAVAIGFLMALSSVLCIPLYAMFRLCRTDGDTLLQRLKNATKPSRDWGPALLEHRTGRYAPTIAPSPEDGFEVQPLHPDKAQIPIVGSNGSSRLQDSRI
Experiment: Glycine uptake inhibition experiment ([3H]glycine uptake)
Assay type: cell-based
Details: GlyT1
Summary of the method: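 T98G glioma cells expressing human GlyT1 were pretreated 10 min with compound in HEPES buffer pH 7.4 (0.2% BSA), then incubated with compound plus 250 nM final [3H]glycine for 15 min at room temperature. Intracellular radioactivity was counted after NaOH lysis; 10 μM ALX5407 defined non-specific uptake. IC50 came from 10^−9–10^−5 M curves.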

Row | IC50 [nM] | Compound
1 | 390 | O=C(NC(c1ccc(F)c(Cl)c1)[C@]1(O)CC[C@@H](F)CC1)c1nccc(C(F)(F)F)c1Cl (single isomer, unassigned) [Compound 225, 3-chloro-N-[(3-chloro-4-fluorophenyl)(cis-4-fluoro-1-hydroxycyclohexyl)methyl]-4-(trifluoromethyl)pyridine-2-carboxamide]
2 | 1300 | O=C(NC(c1cccc(Cl)c1F)C1(O)CCC(F)(F)CC1)c1nc(C(F)(F)F)ccc1Cl (single isomer, unassigned) [Compound 226, 3-chloro-N-[(3-chloro-2-fluorophenyl)(4,4-difluoro-1-hydroxycyclohexyl)methyl]-6-(trifluoromethyl)pyridine-2-carboxamide]
3 | 4200 | O=C(NC(c1ccc(F)c(Cl)c1)[C@]1(O)CC[C@@H](F)CC1)c1nccc(C(F)(F)F)c1Cl (single isomer, unassigned) [Compound 228, 3-chloro-N-[(3-chloro-4-fluorophenyl)(cis-4-fluoro-1-hydroxycyclohexyl)methyl]-4-(trifluoromethyl)pyridine-2-carboxamide]
4 | 28 | O=C(NC(c1cccc(Cl)c1)C1(O)CCCCC1)c1nccc(C(F)(F)F)c1Cl (single isomer, unassigned) [Compound 229, 3-chloro-N-[(3-chlorophenyl)(1-hydroxycyclohexyl)methyl]-4-(trifluoromethyl)pyridine-2-carboxamide]
5 | 2800 | O=C(NC(c1cccc(Cl)c1)C1(O)CCCCC1)c1nccc(C(F)(F)F)c1Cl (single isomer, unassigned) [Compound 230, 3-chloro-N-[(3-chlorophenyl)(1-hydroxycyclohexyl)methyl]-4-(trifluoromethyl)pyridine-2-carboxamide]
6 | 40 | [2H]C1([2H])C([2H])([2H])C([2H])([2H])C(O)(C(NC(=O)c2nccc(C(F)(F)F)c2Cl)c2cccc(Cl)c2)C([2H])([2H])C1([2H])[2H] (single isomer, unassigned) [Compound 231, 3-chloro-N-{(3-chlorophenyl)[1-hydroxy(^2H10)cyclohexyl]methyl}-4-(trifluoromethyl)pyridine-2-carboxamide]
7 | 1400 | [2H]C1([2H])C([2H])([2H])C([2H])([2H])C(O)(C(NC(=O)c2nccc(C(F)(F)F)c2Cl)c2cccc(Cl)c2)C([2H])([2H])C1([2H])[2H] (single isomer, unassigned) [Compound 232, 3-chloro-N-{(3-chlorophenyl)[1-hydroxy(^2H10)cyclohexyl]methyl}-4-(trifluoromethyl)pyridine-2-carboxamide]
8 | 120 | O=C(N[C@@H](c1cccc(F)c1)C1(O)CCC(F)(F)CC1)c1nccc(C(F)(F)F)c1Cl (single isomer, unassigned) [Compound 233, 3-chloro-N-[(4,4-difluoro-1-hydroxycyclohexyl)(3-fluorophenyl)methyl]-4-(trifluoromethyl)pyridine-2-carboxamide]
9 | 280 | O=C(NC(c1cc(Cl)ccc1Cl)C1(O)CCC(F)(F)CC1)c1nccc(C(F)(F)F)c1Cl (single isomer, unassigned) [Compound 234, 3-chloro-N-[(2,5-dichlorophenyl)(4,4-difluoro-1-hydroxycyclohexyl)methyl]-4-(trifluoromethyl)pyridine-2-carboxamide]
10 | 740 | O=C(NC(c1cc(Cl)ccc1Cl)C1(O)CCC(F)(F)CC1)c1nccc(C(F)(F)F)c1Cl (single isomer, unassigned) [Compound 235, 3-chloro-N-[(2,5-dichlorophenyl)(4,4-difluoro-1-hydroxycyclohexyl)methyl]-4-(trifluoromethyl)pyridine-2-carboxamide]
11 | 100 | O=C(NC(c1cccc(F)c1)C1(O)CCC(F)CC1)c1nccc(C(F)(F)F)c1Cl (single isomer, unassigned) [Compound 236, 3-chloro-N-[(cis-4-fluoro-1-hydroxycyclohexyl)(3-fluorophenyl)methyl]-4-(trifluoromethyl)pyridine-2-carboxamide]
12 | 250 | O=C(NC(c1ccccc1F)C1(O)CCC(F)(F)CC1)c1nccc(C(F)(F)F)c1Cl (single isomer, unassigned) [Compound 237]
13 | 220 | O=C(NC(c1ccccc1)[C@]1(O)CC[C@@H](F)CC1)c1nccc(C(F)(F)F)c1Cl (single isomer, unassigned) [Compound 238, 3-chloro-N-[(cis-4-fluoro-1-hydroxycyclohexyl)(phenyl)methyl]-4-(trifluoromethyl)pyridine-2-carboxamide]
14 | 390 | O=C(NC(c1ccccc1F)[C@]1(O)CC[C@@H](F)CC1)c1nccc(C(F)(F)F)c1Cl (single isomer, unassigned) [Compound 239, 3-chloro-N-[(cis-4-fluoro-1-hydroxycyclohexyl)(2-fluorophenyl)methyl]-4-(trifluoromethyl)pyridine-2-carboxamide]
15 | 230 | O=C(NC(c1ccccc1F)[C@]1(O)CC[C@H](F)CC1)c1nccc(C(F)(F)F)c1Cl (single isomer, unassigned) [Compound 240, 3-chloro-N-[(trans-4-fluoro-1-hydroxycyclohexyl)(2-fluorophenyl)methyl]-4-(trifluoromethyl)pyridine-2-carboxamide]
16 | 110 | O=C(NC(c1cccc(F)c1Cl)[C@]1(O)CC[C@@H](F)CC1)c1nccc(C(F)F)c1Cl (single isomer, unassigned) [Compound 241, 3-chloro-N-[(2-chloro-3-fluorophenyl)(cis-4-fluoro-1-hydroxycyclohexyl)methyl]-4-(difluoromethyl)pyridine-2-carboxamide]
17 | 240 | O=C(NC(c1cncc(Cl)c1)[C@]1(O)CC[C@@H](F)CC1)c1nccc(C(F)(F)F)c1Cl (single isomer, unassigned) [Compound 242, 3-chloro-N-[(5-chloropyridin-3-yl)(cis-4-fluoro-1-hydroxycyclohexyl)methyl]-4-(trifluoromethyl)pyridine-2-carboxamide]
18 | 1500 | O=C(NC(c1cncc(Cl)c1)[C@]1(O)CC[C@@H](F)CC1)c1nccc(C(F)(F)F)c1Cl (single isomer, unassigned) [Compound 243, 3-chloro-N-[(5-chloropyridin-3-yl)(cis-4-fluoro-1-hydroxycyclohexyl)methyl]-4-(trifluoromethyl)pyridine-2-carboxamide]
19 | 1000 | O=C(NC(c1ccccn1)[C@]1(O)CC[C@@H](F)CC1)c1nccc(C(F)(F)F)c1Cl (single isomer, unassigned) [Compound 244, 3-chloro-N-[(cis-4-fluoro-1-hydroxycyclohexyl)(pyridin-2-yl)methyl]-4-(trifluoromethyl)pyridine-2-carboxamide]
20 | 990 | O=C(NC(c1cccc(F)c1Cl)[C@]1(O)CC[C@@H](F)CC1)c1cccc(C(F)(F)F)c1F (single isomer, unassigned) [Compound 245, N-[(2-chloro-3-flurophenyl)(cis-4-fluoro-1-hydroxycyclohexyl)methyl]-2-fluoro-3-(trifluoromethyl)benzamide]
21 | 100 | O=C(NC(c1cccc(F)c1Cl)[C@]1(O)CC[C@@H](F)CC1)c1cccc(C(F)(F)F)c1Cl (single isomer, unassigned) [Compound 246, 2-chloro-N-[(2-chloro-3-fluorophenyl)(cis-4-fluoro-1-hydroxycyclohexyl)methyl]-3-(trifluoromethyl)benzamide]
22 | 1000 | O=C(NC(c1cccc(F)c1Cl)[C@]1(O)CC[C@@H](F)CC1)c1ccccc1Cl (single isomer, unassigned) [Compound 247, 2-chloro-N-[(2-chloro-3-fluorophenyl)(cis-4-fluoro-1-hydroxycyclohexyl)methyl]benzamide]
23 | 900 | O=C(NC(c1cccc(F)c1Cl)[C@]1(O)CC[C@@H](F)CC1)c1cccc(Cl)c1Cl (single isomer, unassigned) [Compound 248, 2,3-dichloro-N-[(2-chloro-3-fluorophenyl)(cis-4-fluoro-1-hydroxycyclohexyl)methyl]benzamide]
24 | 1200 | O=C(NC(c1cccc(F)c1Cl)[C@]1(O)CC[C@@H](F)CC1)c1ncccc1Cl (single isomer, unassigned) [Compound 249, 3-chloro-N-[(2-chloro-3-fluorophenyl)(cis-4-fluoro-1-hydroxycyclohexyl)methyl]pyridine-2-carboxamide]
25 | 1900 | O=C(NC(c1cccc(F)c1Cl)[C@]1(O)CC[C@@H](F)CC1)c1cnccc1Cl (single isomer, unassigned) [Compound 250, 4-chloro-N-[(2-chloro-3-fluorophenyl)(cis-4-fluoro-1-hydroxycyclohexyl)methyl]pyridine-3-carboxamide]
26 | 430 | O=C(NC(c1cccc(F)c1Cl)[C@]1(O)CC[C@@H](F)CC1)c1cc(Cl)ccc1Cl (single isomer, unassigned) [Compound 251, 2,5-dichloro-N-[(2-chloro-3-fluorophenyl)(cis-4-fluoro-1-hydroxycyclohexyl)methyl]benzamide]
